Laboratory results from patent publication US12065430B2, “Indazole compound or salt thereof” (TAIHO PHARMACEUTICAL CO., LTD., priority 2018, dated 2024).

Assays:
NCI-H358 cells = experiment: Growth inhibition activity on KRAS-G12C mutant cell line (NCI-H358) (in vitro, CellTiter-Glo2.0); assay type: cell-based; conditions: Homo sapiens, NCI-H358, 72 h, 3-day culture in the presence of the compound
Protocol: NCI-H358 cells (ATCC, Cat #: CRL-5807), which are a KRAS-G12C mutant human lung cancer cell line, were suspended in a 10% fetal bovine serum-containing RPMI1640 medium (manufactured by Fujifilm Wako Pure Chemical Corporation.). The cell suspension was seeded into each well of a 384-well flat-bottom microplate and cultured in an incubator containing 5% CO2 gas at 37° C. for 1 day. The test compound was dissolved in DMSO, and diluted with DMSO to give a concentration 500 times the final concentration. The solution of the test compound in DMSO was diluted with the medium used for suspending cells and added to each well of the cell-culture plate to give a DMSO final concentration of 0.2%, followed by culture in an incubator containing 5% CO2 gas at 37° C. for another 3 days. The cell count after 3-day culture in the presence of the compound was measured using CellTiter-Glo2.0 (manufactured by Promega Corporation) in accordance with the protocol recommended by Promega Corporation. The growth inhibition rate was calculated from the following equation, and the concentration of the test compound at which 50% inhibition was achieved (IC50 (nM)) was determined. […] Growth Inhibition Rate (%)=(C−T)/(C)×100 • T: the emission intensity in a well into which a test compound was added. • C: the emission intensity in a well into which a test compound was not added.

G12C K-Ras4B (1-169) = G12C K-Ras4B (1-169) (Homo sapiens (Human), UniProt P01116, G12C); experiment: Test of compounds on whether to bind to KRASG12C (LC-MS compound binding rate); conditions: final compound concentration of 2 μM, 1 μM protein, 25° C. for 2 hours
Summary of the method: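 K-Ras4B (1-169) WT and G12C (1 μM each, mixed) in 1×TBS, 0.1 mM TCEP incubated with compound (final 2 μM) 2 h at 25° C; quenched with 0.2% formic acid. Intact-protein LC-MS (ESI+, deconvoluted); binding rate = adduct signal/(adduct + unbound signal), giving selectivity over WT.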

Chain of G12C K-Ras4B (1-169) (P01116 other isoform, or with tags, fused parts or gaps G12C): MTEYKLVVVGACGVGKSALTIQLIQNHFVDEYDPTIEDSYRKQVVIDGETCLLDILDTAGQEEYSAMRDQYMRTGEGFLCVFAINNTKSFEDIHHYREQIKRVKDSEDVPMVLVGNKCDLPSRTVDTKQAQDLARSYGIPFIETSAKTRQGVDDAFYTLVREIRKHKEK

SMILES | IC50 (NCI-H358 cells) | binding rate for G12C K-Ras4B (1-169) (G12C K-Ras4B (1-169))
C=CC(=O)N1C[C@H](NC(=O)c2c(C)nc(CNc3n[nH]c4cc(Cl)c(C(C)(C)C)cc34)n2C)[C@@H](F)C1 [Example 64, N-((3S,4S)-1-acryloyl-4-fluoropyrrolidin-3-yl)-2-(((5-(tert-butyl)-6-chloro-1H-indazol-3-yl)amino)methyl)-1,4-dimethyl-1H-imidazole-5-carboxamide] | 241 nM | A (a binding rate of 80% or more is rated “A,”)
C=CC(=O)N1CC(NC(=O)c2c(C(F)F)nc(CNc3n[nH]c4cc(Cl)c(C(C)(C)C)cc34)n2C2CCN(C(C)C)C2)C1.O=CO (stereo not shown) [Example 93, N-(1-acryloylazetidin-3-yl)-2-(((5-(tert-butyl)-6-chloro-1H-indazol-3-yl)amino)methyl)-4-(difluoromethyl)-1-(1-isopropylpyrrolidin-3-yl)-1H-imidazole-5-carboxamide formate] | 40 nM | A (a binding rate of 80% or more is rated “A,”)
C=CC(=O)N1CC(NC(=O)c2c(Cl)nc(CNc3n[nH]c4cc(Cl)c(C(C)(C)C)cc34)n2C2CCOCC2)C1 [Example 101, N-(1-acryloylazetidin-3-yl)-2-(((5-(tert-butyl)-6-chloro-1H-indazol-3-yl)amino)methyl)-4-chloro-1-(tetrahydro-2H-pyran-4-yl)-1H-imidazole-5-carboxamide] | 54 nM | A (a binding rate of 80% or more is rated “A,”)
C=CC(=O)N1CC(NC(=O)c2c(Cl)nc(CNc3n[nH]c4cc(Cl)c(C(C)(C)C)cc34)n2[C@@H]2CCN(CC(F)F)[C@H]2C)C1 [Example 125, N-(1-acryloylazetidin-3-yl)-2-(((5-(tert-butyl)-6-chloro-1H-indazol-3-yl)amino)methyl)-4-chloro-1-((2S,3R)-1-(2,2-difluoroethyl)-2-methylpyrrolidin-3-yl)-1H-imidazole-5-carboxamide] |  | A (a binding rate of 80% or more is rated “A,”)
C=CC(=O)N1CC(NC(=O)c2cnc(CNc3n[nH]c4cc(Cl)c(Br)cc34)n2C)C1 [Reference Example 1, N-(1-acryloylazetidin-3-yl)-2-(((5-bromo-6-chloro-1H-indazol-3-yl)amino)methyl)-1-methyl-1H-imidazole-5-carboxamide, reference compound] |  | E (a binding rate of less than 20% is rated “E.”)
C=CC(=O)N1CC(NC(=O)c2ccc(CNc3n[nH]c4cc(Cl)c(C(C)(C)C)cc34)o2)C1 [Reference Example 2, N-(1-acryloylazetidin-3-yl)-5-(((5-(tert-butyl)-6-chloro-1H-indazol-3-yl)amino)methyl)furan-2-carboxamide, reference compound] |  | E (a binding rate of less than 20% is rated “E.”)
C=CC(=O)N1CC(NC(=O)c2c(-c3ccccc3)nc(CNc3n[nH]c4cc(Cl)c(C(C)(C)C)cc34)n2C)C1 [Reference Example 3, N-(1-acryloylazetidin-3-yl)-2-(((5-(tert-butyl)-6-chloro-1H-indazol-3-yl)amino)methyl)-1-methyl-4-phenyl-1H-imidazole-5-carboxamide, reference compound] |  | E (a binding rate of less than 20% is rated “E.”)

Continued, in another order:

IC50 (NCI-H358 cells) | SMILES | binding rate for G12C K-Ras4B (1-169) (G12C K-Ras4B (1-169))
114 nM | C=CC(=O)N1CC(NC(=O)c2c(C)nc(CNc3n[nH]c4cc(Cl)c(C(C)(C)C)cc34)n2C)C1 [Example 3, N-(1-acryloylazetidin-3-yl)-2-(((5-(tert-butyl)-6-chloro-1H-indazol-3-yl)amino)methyl)-1,4-dimethyl-1H-imidazole-5-carboxamide] | A (a binding rate of 80% or more is rated “A,”)
135 nM | C=CC(=O)N1CC(NC(=O)c2c(C)nc(CNc3n[nH]c4cc(Cl)c(C(C)(C)C)cc34)n2C(C)C)C1 [Example 13, N-(1-acryloylazetidin-3-yl)-2-(((5-(tert-butyl)-6-chloro-1H-indazol-3-yl)amino)methyl)-1-isopropyl-4-methyl-1H-imidazole-5-carboxamide] | A (a binding rate of 80% or more is rated “A,”)
34 nM | C=CC(=O)N1CC(NC(=O)c2c(Cl)nc(CNc3n[nH]c4cc(Cl)c(C(C)(C)C)cc34)n2C)C1 [Example 29, N-(1-acryloylazetidin-3-yl)-2-(((5-(tert-butyl)-6-chloro-1H-indazol-3-yl)amino)methyl)-4-chloro-1-methyl-1H-imidazole-5-carboxamide] | B (a binding rate of 60% or more and less than 80% is rated “B,”)
153 nM | C=CC(=O)N1CC(NC(=O)c2c(C(F)F)nc(CNc3n[nH]c4cc(Cl)c(C(C)(C)C)cc34)n2C(C)C)C1 [Example 33, N-(1-acryloylazetidin-3-yl)-2-(((5-(tert-butyl)-6-chloro-1H-indazol-3-yl)amino)methyl)-4-(difluoromethyl)-1-isopropyl-1H-imidazole-5-carboxamide] | A (a binding rate of 80% or more is rated “A,”)
67 nM | C=CC(=O)N1CC(NC(=O)c2c(Cl)nc(CNc3n[nH]c4cc(Cl)c(C(C)(C)C)cc34)n2C(C)C)C1 [Example 35, N-(1-acryloylazetidin-3-yl)-2-(((5-(tert-butyl)-6-chloro-1H-indazol-3-yl)amino)methyl)-4-chloro-1-isopropyl-1H-imidazole-5-carboxamide] | B (a binding rate of 60% or more and less than 80% is rated “B,”)
142 nM | C=CC(=O)N1C[C@H](NC(=O)c2c(F)nc(CNc3n[nH]c4cc(Cl)c(C(C)(C)C)cc34)n2C)[C@@H](F)C1 [Example 75, N-((3S,4S)-1-acryloyl-4-fluoropyrrolidin-3-yl)-2-(((5-(tert-butyl)-6-chloro-1H-indazol-3-yl)amino)methyl)-4-fluoro-1-methyl-1H-imidazole-5-carboxamide] | A (a binding rate of 80% or more is rated “A,”)
232 nM | C=CC(=O)N1C[C@H](NC(=O)c2c(Cl)nc(CNc3n[nH]c4cc(Cl)c(C(C)(C)C)cc34)n2C)[C@@H](F)C1 [Example 76, N-((3S,4S)-1-acryloyl-4-fluoropyrrolidin-3-yl)-2-(((5-(tert-butyl)-6-chloro-1H-indazol-3-yl)amino)methyl)-4-chloro-1-methyl-1H-imidazole-5-carboxamide] | A (a binding rate of 80% or more is rated “A,”)
350 nM | C=CC(=O)N1C[C@@H](C)[C@@H](NC(=O)c2c(Cl)nc(CNc3n[nH]c4cc(Cl)c(C(C)(C)C)cc34)n2C)C1 [Example 78, N-((3R,4R)-1-acryloyl-4-methylpyrrolidin-3-yl)-2-(((5-(tert-butyl)-6-chloro-1H-indazol-3-yl)amino)methyl)-4-chloro-1-methyl-1H-imidazole-5-carboxamide] | B (a binding rate of 60% or more and less than 80% is rated “B,”)
52 nM | C=CC(=O)N1CC(NC(=O)c2c(Cl)nc(CNc3n[nH]c4cc(Cl)c(C(C)(C)C)cc34)n2[C@H]2CCOC2)C1 [Example 97, (S)—N-(1-acryloylazetidin-3-yl)-2-(((5-(tert-butyl)-6-chloro-1H-indazol-3-yl)amino)methyl)-4-chloro-1-(tetrahydrofuran-3-yl)-1H-imidazole-5-carboxamide] | A (a binding rate of 80% or more is rated “A,”)
